Assay results published in patent US11951094B2, “TLR2 modulator compounds, pharmaceutical compositions and uses thereof” (Axial Therapeutics, Inc., priority 2020, dated 2024).

Tests used:
TLR2 [1] = target: T1, TLR2 (Mus musculus, UniProt Q9QUN7); test: TLR2 functional assay, cytokine release from RAW 264.7 mouse macrophage cell line; format: cell-based; conditions: average of all runs
T1 construct: endogenous in cells; host or cells: RAW 264.7
Method: Cells of the immune system respond to TLR agonists in part by secreting cytokines. Functional assays for TLR2 agonists measure cytokine release from purified immune cells or immortalized cell lines derived from immune cells. Cytokine release is measured by standard ELISA approaches or multiplexed analysis using the Meso Scale Discovery (MSD) platform.
Purified primary human peripheral blood mononuclear cells or RAW 264.7 mouse macrophage cell line cells are plated at approximately 40,000 cells per well. Cells are treated with agonist compounds and assays 6-24 hours post-treatment for cytokines released into the cell culture media.
Following assay measurements utilizing either HEK-Blue detection or cytokine release, all data is analyzed with the GraphPad Prism8 statistical package to determine EC50, binding and activity metrics for the TLR2 modulators.
Numerous cell lines derived from various cell types can respond to TLR2 agonists with stereotyped cytokine and chemokine secretion. In particular, cell lines derived from macrophages respond robustly to TLR2 agonists by secreting a wide array of cytokines, including (but not limited to) TNF-alpha, IL-1, IL-10 and IL-12. The human monocytic cell line THP-1, the mouse macrophage line RAW-264.7, and the rat macrophage line NR8383 were used. For each assay, the respective cell lines were plated into 96-well plates overnight and then treated the following day with various TLR2-engaging compounds at varying concentrations. The next day, supernatants were collected and assayed by multiplex immunodetection for cytokines released (MSD detection kits for respective species).
Data provided in Table 5 is generated using protocols described in Example 45 and 46.

TLR2 [2] = target: TLR2 (Homo sapiens, UniProt O60603); test: TLR2 agonist screening assay, HEK-Blue TLR2 reporter cell line (NF-kB-driven SEAP, absorbance at 600 nm); format: cell-based; design: host or cells: HEK-293 (HEK-Blue TLR2 reporter cell line); conditions: HEK-Blue TLR2 reporter cells, agonist mode; average of all runs (Table 4)
Summary of the method: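 TLR2 engagement is scored through NF-kB-induced secreted alkaline phosphatase in HEK-293 cells, detected by substrate colour change at 600 nm after overnight compound treatment at 1% final DMSO. Potency is expressed as EC50.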

Sequence of TLR2 (Homo sapiens, UniProt O60603) (O60603 21-784): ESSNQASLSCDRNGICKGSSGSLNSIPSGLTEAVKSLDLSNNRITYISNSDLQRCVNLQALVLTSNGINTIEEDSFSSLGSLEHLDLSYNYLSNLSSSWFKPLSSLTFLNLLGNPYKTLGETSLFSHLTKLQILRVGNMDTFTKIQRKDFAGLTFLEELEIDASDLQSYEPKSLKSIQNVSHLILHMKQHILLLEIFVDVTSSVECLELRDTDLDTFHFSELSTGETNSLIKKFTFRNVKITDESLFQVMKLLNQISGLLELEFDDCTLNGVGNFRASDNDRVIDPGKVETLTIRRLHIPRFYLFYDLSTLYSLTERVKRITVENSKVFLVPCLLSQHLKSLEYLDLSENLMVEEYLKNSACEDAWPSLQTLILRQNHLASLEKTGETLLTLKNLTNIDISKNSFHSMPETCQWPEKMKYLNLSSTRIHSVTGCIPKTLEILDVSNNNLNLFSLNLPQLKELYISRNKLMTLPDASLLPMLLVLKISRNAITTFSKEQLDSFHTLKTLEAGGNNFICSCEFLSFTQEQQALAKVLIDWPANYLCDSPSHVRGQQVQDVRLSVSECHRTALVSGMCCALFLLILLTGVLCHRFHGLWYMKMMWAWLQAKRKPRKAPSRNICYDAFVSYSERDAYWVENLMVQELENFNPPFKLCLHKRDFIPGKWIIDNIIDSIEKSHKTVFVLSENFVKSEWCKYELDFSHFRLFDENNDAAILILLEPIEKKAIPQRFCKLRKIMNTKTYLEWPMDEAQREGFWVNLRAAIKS
T1 sequence (Q9QUN7 25-784): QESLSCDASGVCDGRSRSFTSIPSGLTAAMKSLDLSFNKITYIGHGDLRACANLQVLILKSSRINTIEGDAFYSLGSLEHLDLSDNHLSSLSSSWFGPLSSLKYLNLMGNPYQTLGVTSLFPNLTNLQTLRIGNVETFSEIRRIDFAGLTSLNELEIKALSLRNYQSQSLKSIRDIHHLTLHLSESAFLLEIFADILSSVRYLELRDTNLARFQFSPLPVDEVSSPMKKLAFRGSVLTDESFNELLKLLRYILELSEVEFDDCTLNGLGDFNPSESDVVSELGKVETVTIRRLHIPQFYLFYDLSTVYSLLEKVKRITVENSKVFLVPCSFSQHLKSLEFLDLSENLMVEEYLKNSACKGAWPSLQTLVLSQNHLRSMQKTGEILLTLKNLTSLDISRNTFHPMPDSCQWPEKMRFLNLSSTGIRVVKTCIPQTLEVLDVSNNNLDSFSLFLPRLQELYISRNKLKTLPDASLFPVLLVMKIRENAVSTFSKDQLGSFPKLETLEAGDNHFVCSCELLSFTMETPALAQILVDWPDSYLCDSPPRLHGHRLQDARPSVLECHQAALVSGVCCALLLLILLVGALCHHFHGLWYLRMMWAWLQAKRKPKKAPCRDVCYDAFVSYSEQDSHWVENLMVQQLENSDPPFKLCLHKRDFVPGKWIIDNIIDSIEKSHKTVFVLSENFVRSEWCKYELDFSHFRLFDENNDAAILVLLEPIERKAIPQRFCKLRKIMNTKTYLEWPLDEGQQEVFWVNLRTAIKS

Structure (SMILES)	EC50 (TLR2 [1])	EC50 (TLR2 [2])
CCCCCCCCCCCNC(=O)N[C@H]1CN(C(=O)c2ccc(C(=O)N3C[C@@H](C(=O)N[C@H]4C[C@@H]4c4ccccc4)[C@H](C(=O)N[C@H]4C[C@@H]4c4ccccc4)C3)cc2)C[C@@H]1OC [Compound 199, (3S,4S)-1-(4-((3S,4S)-3-methoxy-4-(3-undecylureido)pyrrolidine-1-carbonyl)benzoyl)-N3,N4-bis((1S,2R)-2-phenylcyclopropyl)pyrrolidine-3,4-dicarboxamide]	> 1000 nM	0.1 to 50 nM
CCCCCCCCCC(=O)N[C@@H](CNC(=O)c1ccc(C(=O)N2C[C@@H](C(=O)N[C@H]3C[C@@H]3c3ccccc3)[C@H](C(=O)N[C@H]3C[C@@H]3c3ccccc3)C2)cc1)C(=O)NCCCCCC [Compound 175, (3S,4S)-1-(4-(((S)-2-decanamido-3-(hexylamino)-3-oxopropyl)carbamoyl)benzoyl)-N3,N4-bis ((1S,2R)-2-phenylcyclopropyl) pyrrolidine-3,4-dicarboxamide]	51 to 350 nM	0.1 to 50 nM
CCCCCCCCCCCCNC(=O)N[C@H]1CN(C(=O)c2ccc(C(=O)N3C[C@@H](C(=O)N[C@H]4C[C@@H]4c4ccccc4)[C@H](C(=O)N[C@H]4C[C@@H]4c4ccccc4)C3)cc2)C[C@@H]1OC [Compound 188, (3S,4S)-1-(4-((3S,4S)-3-(3-dodecylureido)-4-methoxypyrrolidine-1-carbonyl)benzoyl)-N3,N4-bis((1S,2R)-2-phenylcyclopropyl)pyrrolidine-3,4-dicarboxamide]	351 to 1000 nM	0.1 to 50 nM
CCCCCCCCNC(=O)[C@H](CNC(=O)c1ccc(C(=O)N2C[C@@H](C(=O)N[C@H]3C[C@@H]3c3ccccc3)[C@H](C(=O)N[C@H]3C[C@@H]3c3ccccc3)C2)cc1)NC(=O)CCCCCCCC [Compound 197, (3S,4S)-1-(4-(((S)-2-nonanamido-3-(octylamino)-3-oxopropyl)carbamoyl)benzoyl)-N3,N4-bis((1S,2R)-2-phenylcyclopropyl)pyrrolidine-3,4-dicarboxamide]	351 to 1000 nM	0.1 to 50 nM
CCCCCCCCCCCCNC(=O)N[C@@H]1CCCN(C(=O)c2ccc(C(=O)N3C[C@@H](C(=O)N[C@H]4C[C@@H]4c4ccccc4)[C@H](C(=O)N[C@H]4C[C@@H]4c4ccccc4)C3)cc2)C1 [Compound 204, (3S,4S)-1-(4-((R)-3-(3-dodecylureido)piperidine-1-carbonyl)benzoyl)-N3,N4-bis((1S,2R)-2-phenylcyclopropyl)pyrrolidine-3,4-dicarboxamide]	> 1000 nM	0.1 to 50 nM
CCCCCCCCCCCOC(=O)N[C@H]1CN(C(=O)c2ccc(C(=O)N3C[C@@H](C(=O)N[C@H]4C[C@@H]4c4ccccc4)[C@H](C(=O)N[C@H]4C[C@@H]4c4ccccc4)C3)cc2)C[C@@H]1OC [Compound 215, undecyl ((3S,4S)-1-(4-((3S,4S)-3,4-bis(((1S,2R)-2-phenylcyclopropyl)carbamoyl)pyrrolidine-1-carbonyl)benzoyl)-4-methoxypyrrolidin-3-yl)carbamate]	> 1000 nM	51 to 350 nM
CCCCCCCCNC(=O)N[C@@H](CNC(=O)c1ccc(C(=O)N2C[C@@H](C(=O)N[C@H]3C[C@@H]3c3ccccc3)[C@H](C(=O)N[C@H]3C[C@@H]3c3ccccc3)C2)cc1)C(=O)NCCCCCC [Compound 211, (3S,4S)-1-(4-(((S)-3-(hexylamino)-2-(3-octylureido)-3-oxopropyl)carbamoyl)benzoyl)-N3,N4-bis((1S,2R)-2-phenylcyclopropyl)pyrrolidine-3,4-dicarboxamide]	> 1000 nM	0.1 to 50 nM
CCCCCCCCCCCCCNC(=O)N[C@H]1CN(C(c2ccc(C(=O)N3C[C@@H](C(=O)N[C@H]4C[C@@H]4c4ccccc4)[C@H](C(=O)N[C@H]4C[C@@H]4c4ccccc4)C3)cc2)C(F)(F)F)C[C@@H]1OC (stereo partly drawn) [Compound 189, (3S,4S)—N3,N4-bis((1S,2R)-2-phenylcyclopropyl)-1-(4-(2,2,2-trifluoro-1-((3S,4S)-3-methoxy-4-(3-tridecylureido)pyrrolidin-1-yl)ethyl)benzoyl)pyrrolidine-3,4-dicarboxamide]	351 to 1000 nM	0.1 to 50 nM
CCCCCCCNC(=O)N[C@@H](CNC(=O)c1ccc(C(=O)N2C[C@@H](C(=O)N[C@H]3C[C@@H]3c3ccccc3)[C@H](C(=O)N[C@H]3C[C@@H]3c3ccccc3)C2)cc1)C(=O)NCCCCCC [Compound 181, (3S,4S)-1-(4-(((S)-2-(3-heptylureido)-3-(hexylamino)-3-oxopropyl)carbamoyl)benzoyl)-N3,N4-bis ((1S,2R)-2-phenylcyclopropyl) pyrrolidine-3,4-dicarboxamide]	> 1000 nM	0.1 to 50 nM
CCCCCCCCCCCCOC(=O)N[C@H]1CN(C(=O)c2ccc(C(=O)N3C[C@@H](C(=O)N[C@H]4C[C@@H]4c4ccccc4)[C@H](C(=O)N[C@H]4C[C@@H]4c4ccccc4)C3)cc2)C[C@@H]1OC [Compound 216, dodecyl ((3S,4S)-1-(4-((3S,4S)-3,4-bis(((1S,2R)-2-phenylcyclopropyl)carbamoyl)pyrrolidine-1-carbonyl)benzoyl)-4-methoxypyrrolidin-3-yl)carbamate]	> 1000 nM	0.1 to 50 nM
CCCCCCCNC(=O)N[C@@H](Cn1cc(-c2ccc(C(=O)N3C[C@@H](C(=O)N[C@H]4C[C@@H]4c4ccccc4)[C@H](C(=O)N[C@H]4C[C@@H]4c4ccccc4)C3)cc2)nn1)C(=O)NCCCCCC [Compound 220, (3S,4S)-1-(4-(1-((S)-2-(3-heptylureido)-3-(hexylamino)-3-oxopropyl)-1H-1,2,3-triazol-4-yl)benzoyl)-N3,N4-bis((1S,2R)-2-phenylcyclopropyl)pyrrolidine-3,4-dicarboxamide]	0.1 to 50 nM	0.1 to 50 nM

Further lines, results first:

EC50 (TLR2 [1])	EC50 (TLR2 [2])	Structure (SMILES)
51 to 350 nM	0.1 to 50 nM	CCCCCCNC(=O)[C@H](CNC(=O)c1ccc(C(=O)N2C[C@@H](C(=O)N[C@H]3C[C@@H]3c3ccccc3)[C@H](C(=O)N[C@H]3C[C@@H]3c3ccccc3)C2)cc1)NC(=O)N[C@H]1C[C@@H]1c1ccccc1 [Compound 222, (3S,4S)-1-(4-(((S)-3-(hexylamino)-3-oxo-2-(3-((1S,2R)-2-phenylcyclopropyl)ureido)propyl)carbamoyl)benzoyl)-N3,N4-bis((1S,2R)-2-phenylcyclopropyl)pyrrolidine-3,4-dicarboxamide]
> 1000 nM	0.1 to 50 nM	CCCCCCCCOC(=O)N[C@@H](CNC(=O)c1ccc(C(=O)N2C[C@@H](C(=O)N[C@H]3C[C@@H]3c3ccccc3)[C@H](C(=O)N[C@H]3C[C@@H]3c3ccccc3)C2)cc1)C(=O)NCCCCCC [Compound 228, octyl ((S)-3-(4-((3S,4S)-3,4-bis(((1S,2R)-2-phenylcyclopropyl)carbamoyl)pyrrolidine-1-carbonyl)benzamido)-1-(hexylamino)-1-oxopropan-2-yl)carbamate]
0.1 to 50 nM	0.1 to 50 nM	CCCCCCCCNC(=O)N[C@@H](Cn1cc(-c2ccc(C(=O)N3C[C@@H](C(=O)N[C@H]4C[C@@H]4c4ccccc4)[C@H](C(=O)N[C@H]4C[C@@H]4c4ccccc4)C3)cc2)nn1)C(=O)NCCCCCC [Compound 221, (3S,4S)-1-(4-(1-((S)-3-(hexylamino)-2-(3-octylureido)-3-oxopropyl)-1H-1,2,3-triazol-4-yl)benzoyl)-N3,N4-bis((1S,2R)-2-phenylcyclopropyl)pyrrolidine-3,4-dicarboxamide]
351 to 1000 nM	> 1000 nM	O=C(N[C@@H](CNC(=O)c1ccc(C(=O)N2C[C@@H](C(=O)N[C@H]3C[C@@H]3c3ccccc3)[C@H](C(=O)N[C@H]3C[C@@H]3c3ccccc3)C2)cc1)C(=O)N[C@H]1C[C@@H]1c1ccccc1)N[C@H]1C[C@@H]1c1ccccc1 [Compound 223, (3S,4S)-1-(4-(((S)-3-oxo-3-(((1S,2R)-2-phenylcyclopropyl)amino)-2-(3-((1S,2R)-2-phenylcyclopropyl)ureido)propyl)carbamoyl)benzoyl)-N3,N4-bis((1S,2R)-2-phenylcyclopropyl)pyrrolidine-3,4-dicarboxamide]
> 1000 nM	0.1 to 50 nM	CCCCCCCOC(=O)N[C@@H](CNC(=O)c1ccc(C(=O)N2C[C@@H](C(=O)N[C@H]3C[C@@H]3c3ccccc3)[C@H](C(=O)N[C@H]3C[C@@H]3c3ccccc3)C2)cc1)C(=O)NCCCCCC [Compound 227, heptyl ((S)-3-(4-((3S,4S)-3,4-bis(((1S,2R)-2-phenylcyclopropyl)carbamoyl)pyrrolidine-1-carbonyl)benzamido)-1-(hexylamino)-1-oxopropan-2-yl)carbamate]
> 1000 nM	> 1000 nM	CO[C@H]1CN(C(=O)c2ccc(C(=O)N3C[C@@H](C(=O)N[C@H]4C[C@@H]4c4ccccc4)[C@H](C(=O)N[C@H]4C[C@@H]4c4ccccc4)C3)cc2)C[C@@H]1NC(=O)N[C@H]1C[C@@H]1c1ccccc1 [Compound 224, (3S,4S)-1-(4-((3S,4S)-3-methoxy-4-(3-((1S,2R)-2-phenylcyclopropyl)ureido)pyrrolidine-1-carbonyl)benzoyl)-N3,N4-bis((1S,2R)-2-phenylcyclopropyl)pyrrolidine-3,4-dicarboxamide]
